Measurements taken from patent US20130053438A1, “PHARMACEUTICAL COMPOSITIONS COMPRISING LIGNANS AND THEIR DERIVATIVES FOR THE MEDICAL MANAGEMENT OF ANGIOGENESIS AND HYPOVASCULARITY” (Universitat Innsbruck, priority 2010, published 2013).
Several values for one entry are separate records, joined by “and”; a condition that tells them apart may be missing. Equal entries are not always repeated.

Key:
endothelial cells = assay: wound scratch healing assay; format: cell-based; conditions: 1 and 10 μM, 9 hours
Protocol: The upper two images show the migration of endothelial cells into scratch area without treatment (left side) an in the presence of Lag2 (right side). The two images at the bottom are the control images of the scratch size at 0 hours.

[1] = system: chorioallantois membrane (CAM) of chicken embryos; assay: chicken chorioallantoic membrane (CAM) assay; format: in vivo; conditions: chicken embryo CAM, each group 5 eggs, p<0.05
From the text: (§1) In particular 5-methoxy-leoligin has been shown and exemplified in the appended examples as a potent activator of angiogenesis. […] Furthermore, the pro-angiogenic activity of 5-methoxy-leoligin has been tested in vivo in the chorioallantois membrane (CAM) assay of chicken embryos. […] These assays are recognized in the art to represent functional assays for in vitro and in vivo angiogenesis; see Methods in Endothelial cell biology, H G Augustin Ed.; 2004, Springer Lab Manual, ISBN 3-540-21397-X, Springer —Verlag Berlin, Heidelberg, N.Y..
Each group consists of 5 eggs.

HUVECs = assay: angiogenic sprouting in a 3-D Collagen matrix (spheroid sprouting assay); format: cell-based; conditions: after 24 h of stimulation
From the text: as §1
These sprouts were analyzed after 24 h of stimulation and “cumulative sprout length” (CSL) of each sprout was quantified in μm.

[2] = system: human microvascular endothelial cells; assay: capillary (endothelial tube) formation on matrigel substrate; format: cell-based; conditions: within 6 hrs of incubation, quantified by imaging software
From the text: as §1
Cells form tube-like structures between each other within 6 hrs of incubation. Those were quantified by an imaging software.

[3] = system: small muscle cells and endothelial cells; conditions: prior art, Reisinger et al. (2009); cited from earlier work
[4] = system: wound closure in pigs (Deutsches Landschwein); assay: porcine model for time of wound closure, topical administration; format: in vivo, pig
Protocol: FIG. 9. […] N for control and Leoligin treated wounds is 5. […] Data assessment was conducted in a blinded manner.
For the large animal model 30-35 kg pigs (Deutsches Landschwein) was used. Animals were supplied by, kept, and experiments were performed at the Central Animal Testing Facility of the University of Innsbruck and the “Besondere Einrichtung für Biomedizinische Forschung” of the Medical University of Vienna. Pigs received a standard growth diet.
One hour prior to anaesthesia pigs received an intramuscular injection of 4 mg/kg Azaperon and 0.1 mg/kg Atropin. Full anaesthesia was achieved by intravenously applied 2-3 mg/kg Propofol and 15 mg Piritramid, followed by intubation of animals and ventilation with 30% O2. Muscle relaxation was achieved by an initial does of 8 mg Pancuronium and repetition with 0.2 mg/kg/h Pancuronium. Maintenance of anaesthesia was achieved by continuous infusion with 8-12 mg/kg/h Propofol and 15 mg Piritramid.
In the course of an experimental bypass surgery in the pig, after re-implantation of the graft (into the carotis artery) Leoligin (“Leo”) or NaCl control solution was added into the wound topically (the situs was filled with control solution (0.9% NaCl) or a solution containing leoligin at 100 μM. By optical inspection every 24 hours of blinded researchers the time to wound closure/healing was documented. Animals with infected wounds were excluded from the analysis.

venous bypass grafts = conditions: prior art, Reisinger (2009); cited from earlier work

SMILES	migration of endothelial cells into scratch area / wound healing (endothelial cells)	vascular density / blood vessel formation [1]	vascular density / blood vessel formation ([1]; listed as LaG2)	number and length of angiogenic sprouts (cumulative sprout length) (HUVECs)	number and length of angiogenic sprouts (cumulative sprout length) (HUVECs; listed as LaG2)	capillary formation (tube-like structures) [2]	capillary formation (tube-like structures) ([2]; listed as LaG2)	induction of cell death [3]	wound healing (in words) ([4]; leoligin 100 μM topical)	time until wound closure after surgery, mean value ([4]; leoligin 100 μM topical, N = 5)	time until wound closure after surgery, individual wounds ([4]; situs filled with solution containing leoligin at 100 μM, topical, inspection every 24 hours, blinded, listed as Leo)	effect on intimal hyperplasia of venous bypass grafts (venous bypass grafts)
C/C=C(/C)C(=O)OC[C@H]1[C@@H](Cc2ccc(OC)c(OC)c2)CO[C@@H]1c1cc(OC)c(OC)c(OC)c1 [5-methoxy-leoligin, [(2S,3R,4R)-4-(3,4-dimethoxybenzyl)-2-(3,4,5-trimethoxyphenyl)tetrahydrofuran-3-yl]methyl-(2Z)-2-methylbut-2-enoat]	promotes the migration of endothelial cells into damaged tissue and stimulates wound healing	significantly increased the vascular density	dose-dependently supported embryonic blood vessel formation	significantly enhanced both the length and number of angiogenic sprouts	significant increase of sprout number and lengths	significant increase in capillary formation	dose-depentently supported capillary formation	–	–	–	–	–
C/C=C(/C)C(=O)OC[C@H]1[C@@H](Cc2ccc(OC)c(OC)c2)CO[C@@H]1c1ccc(OC)c(OC)c1 [leoligin, [(2S,3R,4R)-4-(3,4-dimethoxybenzyl)-2-(3,4-dimethoxyphenyl)tetrahydrofuran-3-yl]methyl (2Z)-2-methylbut-2-enoat]	–	–	–	–	–	–	–	did not induce cell death	can successfully be used to promote wound healing	19.4 days	19 days and 20 days and 16 days and 21 days (2×)	inhibits intimal hyperplasia of venous bypass grafts
